PMC10620772, “Design, synthesis, and biological evaluation of new pyrimidine-5-carbonitrile derivatives as novel anti-cancer, dual EGFR^WT/COX-2 inhibitors with docking studies” (RSC Advances, 2023)

Legend:
Experiment in all cases: NCI60 antitumor screening
Format in all cases: cell-based, human
MALME-3M = details: five-dose
M14 = test system: M14
MDA-MB-435 = test system: MDA-MB-435
SK-MEL-5 = test system: SK-MEL-5
UACC-257 = test system: UACC-257
IGROV1 = test system: IGROV1
OVCAR-3 = test system: OVCAR-3
OVCAR-5 = test system: OVCAR-5
786–0 = test system: 786–0
A498 = test system: A498
ACHN = test system: ACHN
CAKI-1 = test system: CAKI-1
SN12C = test system: SN12C
TK-10 = test system: TK-10
PC-3 = test system: PC-3
MCF7 = test system: MCF7
HS 578T = test system: HS 578T
T-47D = test system: T-47D
MDA-MB-468 = test system: MDA-MB-468
[1] = Homo sapiens, MDA-MB-468, five-dose

N#Cc1c(-c2ccc(F)cc2)nc(SCc2ccccc2)nc1N1CCNCC1 [4e, 2-(Benzylthio)-4-(4-fluorophenyl)-6-(piperazin-1-yl) pyrimidine-5-carbonitrile]
TGI (MALME-3M): 28.20 µM | GI50 (M14; Homo sapiens, M14, five-dose): 12 µM | CC50 (M14; Homo sapiens, M14, five-dose, read-out: LC50 (the source's name)): 51.4 µM | inhibition at 10 µM (M14; Homo sapiens, 10 μM single dose, M14 (melanoma), read-out: growth inhibition percent (GI%)): > 100% | TGI (M14; five-dose): 24.80 µM | GI50 (MDA-MB-435; Homo sapiens, MDA-MB-435, five-dose): 16.9 µM | CC50 (MDA-MB-435; Homo sapiens, MDA-MB-435, five-dose, read-out: LC50 (the source's name)): 58.8 µM | inhibition at 10 µM (MDA-MB-435; Homo sapiens, 10 μM single dose, MDA-MB-435 (melanoma), read-out: growth inhibition percent (GI%)): > 100% | TGI (MDA-MB-435; five-dose): 31.50 µM | GI50 (SK-MEL-5; Homo sapiens, SK-MEL-5, five-dose): 15.7 µM | CC50 (SK-MEL-5; Homo sapiens, SK-MEL-5, five-dose, read-out: LC50 (the source's name)): 54.5 µM | inhibition at 10 µM (SK-MEL-5; Homo sapiens, 10 μM single dose, SK-MEL-5 (melanoma), read-out: growth inhibition percent (GI%)): > 100% | TGI (SK-MEL-5; five-dose): 29.20 µM | GI50 (UACC-257; Homo sapiens, UACC-257, five-dose): 13.1 µM | CC50 (UACC-257; Homo sapiens, UACC-257, five-dose, read-out: LC50 (the source's name)): 52.6 µM | inhibition at 10 µM (UACC-257; Homo sapiens, 10 μM single dose, UACC-257 (melanoma), read-out: growth inhibition percent (GI%)): > 100% | TGI (UACC-257; five-dose): 26.20 µM | inhibition at 10 µM (IGROV1; Homo sapiens, IGROV-1, 10 μM single dose, IGROV1 (ovarian cancer), read-out: growth inhibition percent (GI%)): > 100% | GI50 (IGROV1; Homo sapiens, IGROV-1, five-dose): 14.7 µM | CC50 (IGROV1; Homo sapiens, IGROV-1, five-dose, read-out: LC50 (the source's name)): 56.7 µM | TGI (IGROV1; five-dose): 28.90 µM | GI50 (OVCAR-3; Homo sapiens, OVCAR-3, five-dose): 14.3 µM | CC50 (OVCAR-3; Homo sapiens, OVCAR-3, five-dose, read-out: LC50 (the source's name)): 59.1 µM | inhibition at 10 µM (OVCAR-3; Homo sapiens, 10 μM single dose, OVCAR-3 (ovarian cancer), read-out: growth inhibition percent (GI%)): > 100% | TGI (OVCAR-3; five-dose): 29.10 µM | GI50 (OVCAR-5; Homo sapiens, OVCAR-5, five-dose): 14.1 µM | CC50 (OVCAR-5; Homo sapiens, OVCAR-5, five-dose, read-out: LC50 (the source's name)): 54.2 µM | inhibition at 10 µM (OVCAR-5; Homo sapiens, 10 μM single dose, OVCAR-5 (ovarian cancer), read-out: growth inhibition percent (GI%)): > 100% | TGI (OVCAR-5; five-dose): 27.60 µM | GI50 (786–0; Homo sapiens, 786-0, five-dose): 11 µM | LC50 (concentration killing 50% of tumour cells) (786–0; Homo sapiens, 786-0, five-dose): 58.9 µM | inhibition at 10 µM (786–0; Homo sapiens, 10 μM single dose, 786–0 (renal cancer), read-out: growth inhibition percent (GI%)): > 100% | TGI (786–0; five-dose): 25.40 µM | GI50 (A498; Homo sapiens, A498, five-dose): 13.1 µM | LC50 (A498; Homo sapiens, A498, five-dose): 56.9 µM | inhibition at 10 µM (A498; Homo sapiens, 10 μM single dose, A498 (renal cancer), read-out: growth inhibition percent (GI%)): > 100% | TGI (A498; five-dose): 27.30 µM | GI50 (ACHN; Homo sapiens, ACHN, five-dose): 14 µM | LC50 (ACHN; Homo sapiens, ACHN, five-dose): 54 µM | inhibition at 10 µM (ACHN; Homo sapiens, 10 μM single dose, ACHN (renal cancer), read-out: growth inhibition percent (GI%)): > 100% | TGI (ACHN; five-dose): 27.50 µM | GI50 (CAKI-1; Homo sapiens, CAKI-1, five-dose): 16 µM | CC50 (CAKI-1; Homo sapiens, CAKI-1, five-dose, read-out: LC50 (the source's name)): 55.1 µM | inhibition at 10 µM (CAKI-1; Homo sapiens, 10 μM single dose, CAKI-1 (renal cancer), read-out: growth inhibition percent (GI%)): > 100% | TGI (CAKI-1; five-dose): 29.70 µM | GI50 (SN12C; Homo sapiens, SN12C, five-dose): 13.8 µM | CC50 (SN12C; Homo sapiens, SN12C, five-dose, read-out: LC50 (the source's name)): 53.8 µM | inhibition at 10 µM (SN12C; Homo sapiens, 10 μM single dose, SN12C (renal cancer), read-out: growth inhibition percent (GI%)): > 100% | TGI (SN12C; five-dose): 27.20 µM | GI50 (TK-10; Homo sapiens, TK-10, five-dose): 14.5 µM | LC50 (TK-10; Homo sapiens, TK-10, five-dose): 55.5 µM | inhibition at 10 µM (TK-10; Homo sapiens, 10 μM single dose, TK-10 (renal cancer), read-out: growth inhibition percent (GI%)): > 100% | TGI (TK-10; five-dose): 28.40 µM | GI50 (PC-3; Homo sapiens, PC-3, five-dose): 11.8 µM | CC50 (PC-3; Homo sapiens, PC-3, five-dose, read-out: LC50 (the source's name)): 56.4 µM | inhibition at 10 µM (PC-3; Homo sapiens, 10 μM single dose, PC-3 (prostate cancer), read-out: growth inhibition percent (GI%)): > 100% | TGI (PC-3; five-dose): 25.80 µM | GI50 (MCF7; Homo sapiens, MCF7, five-dose): 3.94 µM | CC50 (MCF7; Homo sapiens, MCF7, five-dose, read-out: LC50 (the source's name)): 44.8 µM | inhibition at 10 µM (MCF7; Homo sapiens, 10 μM single dose, MCF7 (breast cancer), read-out: growth inhibition percent (GI%)): > 100% | TGI (MCF7; five-dose): 15.30 µM | GI50 (HS 578T; Homo sapiens, Hs-578T, five-dose): 14.1 µM | CC50 (HS 578T; Homo sapiens, Hs-578T, five-dose, read-out: LC50 (the source's name)): 72.7 µM | inhibition at 10 µM (HS 578T; Homo sapiens, 10 μM single dose, HS 578T (breast cancer), read-out: growth inhibition percent (GI%)): > 100% | TGI (HS 578T; five-dose): 32.00 µM | inhibition at 10 µM (T-47D; Homo sapiens, T47D, 10 μM single dose, T-47D (breast cancer), read-out: growth inhibition percent (GI%)): > 100% | GI50 (T-47D; Homo sapiens, T47D, five-dose): 10.1 µM | CC50 (T-47D; Homo sapiens, T47D, five-dose, read-out: LC50 (the source's name)): 61 µM | TGI (T-47D; five-dose): 24.80 µM | GI50 (MDA-MB-468; [1]): 6.71 µM | LC50 (MDA-MB-468; [1]): 51.6 µM | inhibition at 10 µM (MDA-MB-468; Homo sapiens, 10 μM single dose, MDA-MB-468 (breast cancer), read-out: growth inhibition percent (GI%)): > 100% | TGI (MDA-MB-468; five-dose): 21.30 µM
